Results on 23 molecules are retold here after patent US20140187548A1, “6 SUBSTITUTED IMIDAZOPYRAZINES FOR USE AS MPS-1 AND TKK INHIBITORS IN THE TREATMENT OF HYPERPROLIFERATIVE DISORDERS” (BAYER INTELLECTUAL PROPERTY GMBH, priority 2010, published 2014).

Each structure is given as a SMILES string.

The assay has as its target T1, human kinase Mps-1 (Homo sapiens, UniProt P33981).
T1 construct: N-terminally GST-tagged human full length recombinant Mps-1 kinase; GST (N); purchased Invitrogen, Karslruhe, Germany PV4071
T1 sequence (P33981 1-857): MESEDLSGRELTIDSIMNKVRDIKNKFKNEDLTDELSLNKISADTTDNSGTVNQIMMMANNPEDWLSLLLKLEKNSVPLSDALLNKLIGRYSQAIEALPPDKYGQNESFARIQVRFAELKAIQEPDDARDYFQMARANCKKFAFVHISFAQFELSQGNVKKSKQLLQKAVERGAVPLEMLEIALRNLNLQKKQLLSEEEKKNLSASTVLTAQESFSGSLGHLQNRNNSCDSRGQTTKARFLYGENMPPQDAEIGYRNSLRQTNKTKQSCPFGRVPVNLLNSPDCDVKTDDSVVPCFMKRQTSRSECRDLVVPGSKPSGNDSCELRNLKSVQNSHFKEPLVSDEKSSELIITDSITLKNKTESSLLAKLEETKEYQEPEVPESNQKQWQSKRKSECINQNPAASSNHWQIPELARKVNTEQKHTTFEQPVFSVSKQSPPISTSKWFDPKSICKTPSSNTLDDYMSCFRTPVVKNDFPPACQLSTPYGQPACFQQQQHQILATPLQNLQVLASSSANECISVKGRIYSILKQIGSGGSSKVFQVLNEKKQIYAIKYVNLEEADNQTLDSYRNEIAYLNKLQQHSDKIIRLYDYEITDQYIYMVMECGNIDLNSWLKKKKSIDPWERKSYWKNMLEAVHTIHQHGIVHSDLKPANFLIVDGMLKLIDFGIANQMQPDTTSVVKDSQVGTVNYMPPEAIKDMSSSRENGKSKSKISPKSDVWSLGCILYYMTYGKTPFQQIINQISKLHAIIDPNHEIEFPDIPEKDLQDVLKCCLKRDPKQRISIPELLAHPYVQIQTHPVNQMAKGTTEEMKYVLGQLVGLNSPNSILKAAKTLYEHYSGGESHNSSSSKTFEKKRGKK
Description: Mps-1 kinase assay (TR-FRET). Type of assay: biochemical. The note with it: N-terminally GST-tagged human full length recombinant Mps-1; 10 μM ATP; 1 μM peptide substrate; 15 min pre-incubation; 60 min at 22° C. On the procedure: The human kinase Mps-1 phosphorylates a biotinylated substrate peptide. Detection of the phosphorylated product is achieved by time-resolved fluorescence resonance energy transfer (TR-FRET) from Europium-labelled anti-phospho-Serine/Threonine antibody as donor to streptavidin labelled with cross-linked allophycocyanin (SA-XLent) as acceptor. Compounds are tested for their inhibition of the kinase activity.
N-terminally GST-tagged human full length recombinant Mps-1 kinase (purchased from Invitrogen, Karslruhe, Germany, cat. no PV4071) was used. As substrate for the kinase reaction a biotinylated peptide of the amino-acid sequence […] (C-terminus in amide form, purchased from Biosynthan GmbH, Berlin) was used.
The concentration of Mps-1 in the assay was adjusted to the activity of the enzyme lot and was chosen appropriate to have the assay in the linear range, typical enzyme concentrations were in the range of about 1 nM (final conc. in the 5 μl assay volume).
The resulting mixture was incubated 1 h at 22° C. to allow the binding of the phosphorylated peptide to the anti-phospho(Ser/Thr)-Europium-antibody. Subsequently the amount of phosphorylated substrate was evaluated by measurement of the resonance energy transfer from the Europium-labelled anti-phospho(Ser/Thr) antibody to the Streptavidin-XLent. Therefore, the fluorescence emissions at 620 nm and 665 nm after excitation at 350 nm was measured in a Viewlux TR-FRET reader (PerkinElmer LAS, Rodgau-Jügesheim, Germany). The “blank-corrected normalized ratio” (a Viewlux specific readout, similar to the traditional ratio of the emissions at 665 nm and at 622 nm, in which blank and Eu-donor crosstalk are subtracted from the 665 nm signal before the ratio is calculated) was taken as the measure for the amount of phosphorylated substrate.
(In general: Time-resolved FRET reads energy transfer from a long-lived donor to a nearby acceptor.)
`CC(C)CNc1nc(-c2ccccc2C(F)(F)F)cn2c(-c3ccc(C(=O)NC4CC4)cc3)cnc12` [Example 1-43, N-cyclopropyl-4-{8-[(2-methylpropyl)amino]-6-[2-(trifluoromethyl)phenyl]imidazo[1,2-a]pyrazin-3-yl}benzamide]: the IC50 worked out at 16.3 nM.

On to `CN(C)CCNc1nc(-c2ccccc2)cn2c(-c3ccc(C(=O)NC4CC4)cc3)cnc12` [Example 2-34, N-cyclopropyl-4-(8-{[2-(dimethylamino)ethyl]amino}-6-phenylimidazo[1,2-a]pyrazin-3-yl)benzamide], for which the IC50 worked out at 35.7 nM. The value for `COc1ccc(Cl)cc1-c1cn2c(-c3ccc(C(=O)NC4CC4)cc3)cnc2c(NCC(C)C)n1` [Example 1-71, 4-{6-(5-chloro-2-methoxy-phenyl)-8-[(2-methyl-propyl)amino]imidazo [1,2-a]pyrazin-3-yl}-N-cyclopropylbenzamide] was 35.9 nM; that for `CN(C)c1ccc(-c2cn3c(-c4ccc(C(=O)NC5CC5)c(F)c4)cnc3c(NCc3ccnn3C)n2)cc1` [Example 1-120, N-cyclopropyl-4-(6-[4-(dimethylamino)phenyl]-8-{[(1-methyl-1H-pyrazol-5-yl)methyl]amino}imidazo[1,2-a]pyrazin-3-yl)-2-fluorobenzamide] was 16.8 nM; that for `CN(C)CCCCNc1nc(-c2ccccc2)cn2c(-c3ccc(C(=O)NC4CC4)cc3)cnc12` [Example 2-38, N-cyclopropyl-4-(8-{[4-(dimethylamino)butyl]amino}-6-phenylimidazo[1,2-a]pyrazin-3-yl)benzamide] was 13.2 nM. As for `CC(C)CNc1nc(-c2cccc(CO)c2)cn2c(-c3ccc(C(=O)NC4CC4)cc3)cnc12` [Example 1-5, N-cyclopropyl-4-{6-[3-(hydroxymethyl)phenyl]-8-[(2-methylpropyl)amino]imidazo[1,2-a]pyrazin-3-yl}benzamide], the IC50 came to 1.4 nM. The value for `Cn1nccc1CNc1nc(-c2ccc(F)cc2)cn2c(-c3ccc(C(=O)NC4CC4)c(F)c3)cnc12` [Example 1-119, N-cyclopropyl-2-fluoro-4-[6-(4-fluorophenyl)-8-{[(1-methyl-1H-pyrazol-5-yl)methyl]amino}imidazo[1,2-a]pyrazin-3-yl]benzamide] was 2.5 nM; that for `CC(C)CNc1nc(-c2cccc(O)c2)cn2c(-c3ccc(C(=O)NC4CC4)cc3)cnc12` [Example 1-66, N-cyclopropyl-4-{6-(3-hydroxyphenyl)-8-[(2-methylpropyl)amino]imidazo[1,2-a]pyrazin-3-yl}benzamide] was 2.2 nM.

For `CCC(CNc1nc(-c2ccccc2)cn2c(-c3ccc(C(=O)NC4CC4)cc3)cnc12)OC` (centres unmarked) [Example 2-58, N-cyclopropyl-4-{8-[(2-methoxybutyl)amino]-6-phenylimidazo[1,2-a]pyrazin-3-yl}benzamide], the IC50 was determined as 2.9 nM. The value for `CC(C)CNc1nc(-c2cccc3[nH]ccc23)cn2c(-c3ccc(C(=O)NC4CC4)cc3)cnc12` [Example 1-22, N-cyclopropyl-4-{6-(1H-indol-4-yl)-8-[(2-methyl-propyl)amino]imidazo [1,2-a]pyrazin-3-yl} benzamide] was 2.6 nM; that for `CNC(=O)c1ccc(-c2cn3c(-c4ccc(C(=O)NC5CC5)cc4)cnc3c(NCC(C)C)n2)cc1` [Example 1-31, 4-{3-[4-(cyclopropyl-carbamoyl)phenyl]-8-[(2-methylpropyl)amino]imidazo[1,2-a]pyrazin-6-yl}-N-methylbenzamide] was 1.3 nM; that for `CC(C)CNc1nc(-c2ccc3[nH]ccc3c2)cn2c(-c3ccc(C(=O)NC4CC4)cc3)cnc12` [Example 1-74, N-cyclopropyl-4-{6-(1H-indol-5-yl)-8-[(2-methyl-propyl)amino]imidazo [1,2-a]pyrazin-3-yl} benzamide] was 37.7 nM.

For `O=C(NC1CC1)c1ccc(-c2cnc3c(NCc4cc[nH]n4)nc(-c4ccccc4)cn23)cc1` [Example 2-55, N-cyclopropyl-4-{6-phenyl-8-[(1H-pyrazol-3-ylmethyl)amino]imidazo[1,2-a]pyrazin-3-yl} benzamide], the IC50 stood at 2.7 nM.

Consider `CC(C)CNc1nc(-c2ccc(-c3ccccc3)cc2)cn2c(-c3ccc(C(=O)NC4CC4)cc3)cnc12` [Example 1-49, 4-{6-(biphenyl-4-yl)-8-[(2-methylpropyl)amino]imidazo[1,2-a]pyrazin-3-yl}-N-cyclopropyl-benzamide], for which the IC50 was determined as 7.2 nM. On to `CC(C)CNc1nc(-c2ccc3cc[nH]c3c2)cn2c(-c3ccc(C(=O)NC4CC4)cc3)cnc12` [Example 1-23, N-cyclopropyl-4-{6-(1H-indol-6-yl)-8-[(2-methyl-propyl)amino]imidazo [1,2-a]pyrazin-3-yl} benzamide], for which the IC50 was determined as 21 nM. For `CC(C)CNc1nc(-c2ccc(C(=O)N3CCCC3)cc2)cn2c(-c3ccc(C(=O)NC4CC4)cc3)cnc12` [Example 1-26, N-cyclopropyl-4-{8-[(2-methylpropyl)amino]-6-[4-(pyrrolidin-1-yl-carbonyl)phenyl]imidazo [1,2-a]pyrazin-3-yl} benzamide] the value was 3.9 nM; for `CC(C)CNc1nc(-c2ccc(C(F)(F)F)cc2)cn2c(-c3ccc(C(=O)NC4CC4)cc3)cnc12` [Example 1-36, N-cyclopropyl-4-{8-[(2-methylpropyl)amino]-6-[4-(trifluoromethyl)phenyl]imidazo[1,2-a]pyrazin-3-yl}benzamide], 30 nM; for `O=C(NC1CC1)c1ccc(-c2cnc3c(NCC4CCCCC4)nc(-c4cccc5ncccc45)cn23)cc1` [Example 1-128, 4-{8-[(cyclohexylmethyl)amino]-6-(quinolin-5-yl)imidazo[1,2-a]pyrazin-3-yl}-N-cyclopropylbenzamide], 1.2 nM. Turning to `COCCCNc1nc(-c2ccccc2)cn2c(-c3ccc(C(=O)NC4CC4)cc3)cnc12` [Example 2-46, N-cyclopropyl-4-{8-[(3-methoxypropyl)amino]-6-phenylimidazo[1,2-a]pyrazin-3-yl}benzamide], the IC50 came out at 3.5 nM. For `CC(C)(O)CNc1nc(-c2cc(F)c(F)c(F)c2)cn2c(-c3ccc(C(=O)NC4CC4)cc3)cnc12` [Example 1-134, N-cyclopropyl-4-{8-[(2-hydroxy-2-methyl-propyl)amino]-6-(3,4,5-trifluorophenyl)imidazo[1,2-a]pyrazin-3-yl} benzamide] the value was 31.5 nM; for `O=C(NC1CC1)c1ccc(-c2cnc3c(NCCC(F)(F)F)nc(-c4ccc(F)cc4)cn23)cc1F` [Example 1-112, N-cyclopropyl-2-fluoro-4-{6-(4-fluorophenyl)-8-[(3,3,3-trifluoropropyl)amino]imidazo[1,2-a]pyrazin-3-yl}benzamide], 2.6 nM. `O=C(NC1CC1)c1ccc(-c2cnc3c(NCC(F)(F)F)nc(-c4ccccc4)cn23)cc1` [Example 2-85, N-cyclopropyl-4-{6-phenyl-8-[(2,2,2-trifluoroethyl)amino]imidazo[1,2-a]pyrazin-3-yl}benzamide]: the IC50 was found to be 2.8 nM. The value for `O=C(NC1CC1)c1ccc(-c2cnc3c(NCc4ccc5c(c4)OCO5)nc(-c4ccccc4)cn23)cc1` [Example 2-32, 4-{8-[(1,3-benzodioxol-5-ylmethyl)amino]-6-phenylimidazo[1,2-a]pyrazin-3-yl}-N-cyclopropyl-benzamide] was 5.8 nM.

As a reminder, the IC50 is the concentration at which inhibition is half-maximal.
